Values of other authors in US20200325234A1, “IMMUNE-BASED TREATMENT OF KRAS-VARIANT CANCER PATIENTS” (MIRA DX, INC., priority 2016, published 2020).
Where two headings read alike, the source gives them in different places.

Tested on: KRAS-variant patients
[1] = KRAS-variant patients with non-small cell lung cancer (NSCLC)

SMILES	response to therapy [1]	response to therapy (KRAS-variant patients with ovarian or head and neck cancer)
C#Cc1cccc(Nc2ncnc3cc(OCCOC)c(OCCOC)cc23)c1 [erlotonib]	resistance	
CNC(=O)c1cc(Oc2ccc(NC(=O)Nc3ccc(Cl)c(C(F)(F)F)c3)cc2)ccn1 [sorafenib]	sensitivity	
N.N.[Cl][Pt][Cl] [cisplatin]		resistance
